63 molecules from a melting point compilation (Tetko et al.; mined from patent text by program, amines drawn as free bases though some values may be those of a salt) can be followed below.

A word on the melting point: it is the temperature, or range, at which the solid turns liquid.

In turn, `COc1ccc(-c2cc(CO)c(=O)n(CC3CCCC3)n2)cc1F` showed a melting point of 130 to 133 °C. The value for `OCc1c(CO)c2sc3ccccc3n2c1-c1ccc(F)cc1` was 155 to 156 °C. Molecule `CCCc1c(C(C)C)nc(C(C)C)c(C(C)O)c1-c1ccc(F)cc1O` (stereo not drawn) registered a melting point of 152 to 153 °C.

`COc1ccc([C@@H]2CCc3cc(OC)ccc3[C@@H]2CCn2ccnc2)cc1` (relative stereo) yielded a melting point of 121 °C. `CCc1nc2cc(C)c(Cl)nc2n1-c1ccc(CCNC(=O)NS(=O)(=O)c2ccc(C)cc2)cc1`: the melting point is 205 to 206 °C. In the case of `CCN(CC)C(=O)c1cccc2c(=O)c(C)c(-c3ccc(OC)cc3)oc12` it was 143 to 147 °C; in that of `COC(=O)CCCCNC(=O)c1sc2ccc(OC)cc2c1OC(C)C`, 82 to 84 °C. `CN(C)C(=O)c1ccccc1[N+](=O)[O-]` gave a melting point of 74 to 76 °C. The value for `CC(=O)O[C@@H]1OCC[C@@H]1NC(=O)[C@H](CC(C)C)NS(=O)(=O)c1ccc(N)cc1` was 189 to 190 °C; that for `CN1c2ccc(C=O)cc2CCC1c1ccccc1` (stereo not drawn) was 86 to 89 °C. The value for `CON=Cc1sc(-c2ccc(O)cc2C)c(C)c1-c1ccc(O)c(F)c1` was 172 to 177 °C; that for `O=C(O)c1cc(F)c(F)c(C2CC2)c1F` was 95 to 97 °C; that for `COC(=O)c1cncn1C1c2ccccc2C=CC1(C)C` (stereo not drawn) was 60 to 61 °C.

In turn, `Cc1ccc(C=CCC(CCC(=O)O)(C(=O)C=Cc2ccc(Cl)cc2)c2ccccc2)cc1` (stereo not drawn) yielded a melting point of 170 to 180 °C. In turn, `COc1ccc([C@]2(C)C=Cc3cc(OC)ccc3[C@H]2C=O)cc1` (relative stereo) had a melting point of 127 °C. The value for `CNC(=O)CC(O)(c1ccc(Br)cc1)c1cccnc1` (stereo not drawn) was 188 to 191 °C; that for `FC(F)(F)c1cccc(-c2ccnc3c(Cl)cnn23)c1` was 155 to 157 °C; that for `CC1(C)OC(=S)Nc2ccc(-c3ccccc3Cl)cc21` was 171 to 172 °C. In the case of `Fc1ccc(C2(c3ccc(F)cc3)CNC(c3cnccn3)=N2)cc1` it was 144 to 146 °C. As to `CC(O)=C1C(=O)CC(c2cc(Cl)sc2Cl)CC1=O` (stereo not drawn), the melting point was 107 to 108 °C. For the molecule `CCCCC(Oc1ccccc1)C(=O)OC1CC(O)C=C2C=CC(C)C(CCC3CC(O)CC(=O)O3)C21` (mixture of isomers), the melting point is 139 to 141 °C. The molecule `CNC(=O)C(=NOC)c1cccc(Cl)c1COc1ccc(Sc2ccc(Cl)cc2)cn1` displayed a melting point of 116 to 118 °C. In the case of `O=C(C=Cc1ccc(Cl)cc1)C(Cc1ccccc1)c1ccccc1` (stereo not drawn) it was 113 to 115 °C. The value for `Cc1nc(-c2ccc(OC3CCCCO3)cc2)cc(-c2c(Cl)ccc(Cl)c2Cl)c1C#N` (stereo not drawn) was 148 to 152 °C; that for `CN1C(=O)C(C(=N)c2ccccc2)=C(O)CC1c1ccccc1` (stereo not drawn) was 117 to 120 °C. In the case of `CC(C)(C)OC(=O)Nc1ccc(I)cc1NC(=O)CC(=O)c1cccc(C#N)c1`, the melting point lay within 182 to 183 °C. In turn, `C=C1C(O)C(CO)OC1n1cc(I)c(=O)[nH]c1=O` (stereo not drawn) had a melting point of 169 to 172 °C. The value for `O=C(c1ccccc1)N1CCSc2cccc(Cl)c2C1` was 64 to 72 °C. The value for `C=CCc1c(O)c(C)cc2c1C(C)(C)CC1(CC(C)(C)c3c(cc(C)c(O)c3CC=C)O1)O2` was 95 to 97 °C; that for `COc1ccc2c(Cc3c(Cl)cncc3Cl)nncc2c1C=Cc1ccccc1` was 180 to 182 °C. The value for `Oc1ccccc1-c1nc(-c2ccc(-c3ccccc3)cc2)nc(-c2ccc3ccccc3c2)n1` was 227 to 239 °C; that for `COC(=O)c1cccc2nc(SCCN3CCN(CCNC(=O)Nc4c(C(C)C)cccc4C(C)C)CC3)oc12` was 186 to 188 °C. As for `CC(=O)OC/C=C/c1ccc(-c2ccccc2C)cc1`, the melting point lay within 54 to 56 °C. The value for `Cc1oc(-c2ccccc2)nc1CCc1ccc(CCCC2SC(=O)NC2=O)cc1` (stereo not drawn) was 99 to 100 °C; that for `CN1CCC(c2c[nH]c3ccc(-n4ccnn4)cc23)CC1` was 251 to 254 °C; that for `Cc1c(C)c2c(c(C)c1NC=O)CC(C)(C)O2` was 177 to 179 °C. Turning to `O=Cc1ccc2c(c1)C13CC2c2ccccc2C1CN(CC1CCCC1)C3` (stereo not drawn), the melting point was in the range of 170 to 175 °C. In the case of `COC1(c2nc3ccc(C)cc3s2)C=CC(=NS(=O)(=O)c2ccc(C)cc2)C=C1` (stereo not drawn) it was 166 to 168 °C; in that of `CC12CC(=O)C3C(CCC4C(Br)C(O)CCC43C)C1CCC2C(=O)CBr` (stereo not drawn), 164 to 166 °C; in that of `COc1cc(-c2cnn3c(-c4cccc(NC(=O)CC(C)C)c4)ccnc23)cc(OC)c1OC`, 86 to 90 °C.

`O=C1CCC(N2C(=O)c3cccc(CNC(=O)Nc4cccc5ccccc45)c3C2=O)C(=O)N1` (stereo not drawn) registered a melting point of 250 to 252 °C. The value for `CC(C)(O)C#Cc1ccc(Br)cc1` was 62 °C; that for `CN(C)CCCN(C)C(=O)c1cc([N+](=O)[O-])c[nH]1` was 118 to 120 °C; that for `O=S1(=O)NC=Nc2cc(C(F)(F)F)c(F)cc21` was 152 °C.

`CC1CC(=O)c2cc(Cl)cc(Cl)c2O1` (stereo not drawn) had a melting point of 98 to 102 °C. In the case of `CCCCCCOc1cc(-n2c(=O)cc(C(F)(F)F)n(C)c2=O)c(F)cc1Cl` it was 60 to 63 °C; in that of `COc1cc([C@H](C)O)ccc1OCCCN1CCC(c2noc3cc(F)ccc23)CC1`, 138 to 139 °C. Consider `Cn1cccc1C(=O)Nc1cccc(C=CC(=O)N2CC(CCl)c3ccc([N+](=O)[O-])cc32)c1` (stereo not drawn), for which the melting point is 215 °C. In turn, `CC(=O)Nc1cc(N(C)C)c([N+](=O)[O-])cc1C(=O)O` had a melting point of 230 to 255 °C.

In turn, `O=C1CCC(Cc2ccc(Br)cc2)=C1O` gave a melting point of 144 to 145 °C. `CCOC(Cc1ccc(OCCN2COc3ccccc3C2=O)cc1)C(=O)O` (stereo not drawn) gave a melting point of 103 to 105 °C. `O=C1CC(C(=O)O)N(C(=O)CCS)N1` (stereo not drawn) yielded a melting point of 140 to 142 °C.

`CCCc1c(OCCOCCOCCOCCOc2ccc3ccc(OCC(=O)O)cc3c2C(C)=O)ccc(C(C)=O)c1O` registered a melting point of 57 to 58 °C. In the case of `Cc1nc(-n2cnn(CC(=O)Nc3ccc(Cl)cc3)c2=O)sc1C(=O)NCc1cccnc1` it was 255 to 256 °C.

Turning to `CC(=O)NCCCC(=O)c1ccccc1`, the melting point fell in the range of 92 to 95 °C. In the case of `Cc1cc(N(C)Cc2ccc(-c3ccc(C(F)(F)F)cc3)nc2)ccc1OCC(=O)O` it was 199 °C; in that of `O=c1cc(-c2ccc(Br)cc2)oc2ccccc12`, 177 to 179 °C; in that of `COc1ccccc1-c1ncsc1C(=O)O`, 170 to 172 °C. For `CN(C)N=C(CCC(=O)O)c1ccc(-c2ccc(Cl)cc2)cc1`, the melting point was 158 to 160 °C. In the case of `Cc1cccc(C)c1C(N)=NO` it was 77 to 79 °C; in that of `CCc1oc(-c2ccc(C(F)(F)F)cc2)cc1CCC(=O)O`, 94 to 95 °C. The value for `O=C(O)COCCCC1CCCN1c1cnc(-c2ccccc2)c(-c2ccccc2)n1` (stereo not drawn) was 137 to 139 °C. As to `Fc1ccc(-c2ccc(CCNc3ncnc4nccnc34)cc2)cn1`, the melting point was 184 to 186 °C.
